Here are results for three molecules from patent US10344330B2, “Glatiramer acetate response biomarker mRNA potency assay” (Mylan Inc., priority 2013, dated 2019).

Assay [1] relates to IL-1b secreted by LN cells. Nature of the assay: IL-1b secretion by GA-stimulated LN cells, MSD 9-plex ELISA (Example II). It counts as cell-based, mouse. The note with it: 21 hr. The method, then:
Animals at 8 weeks of age were immunized by injection into four footpads using a 1 mL syringe with a 27-G, 1⁄2-inch needle. […] Ten days post-immunization, immunized animals were sacrificed via cervical dislocation. […] The LN cells were isolated by pressing the LN with the plunger end of a sterile syringe. […] Trypan blue exclusion method was used to determine the cell density of viable cells in the suspension. […] Cat. […] LN cells were plated into a 24-well tissue culture plate for drug stimulation. […] Cell debris was removed by centrifugation at ca. 200×g for 10 minutes at 4° C. Cytokines secreted by treated cells were determined on the day of collection by ELISA using mouse TH 1/TH 2 9-Plex Tissue Culture Kit (Meso Scale Discovery; Cat No. […]-2, Lot #: K0032839) which detects Th1 cytokines (IFN-γ, IL-2, IL-12, IL-1β, TNF-α, CXCL1) and Th2 cytokines (IL-4, IL-5 and IL-10). For IFN-γ, culture media also were assayed at 45 hours using mouse IFN-γ Tissue Culture Kit (Meso Scale Discovery; Cat No. […] For the positive control, 0.5 mL of LN cells (5×10^6 cells/well) were treated with 0.5 mL of ConA (5 μg/mL). For the negative control, 0.5 mL of LN cells (5×10^6 cells/well) were treated with 0.5 mL of MBP (20 μg/mL). The LN cells with mock stimulation (enriched DCCM1 medium) were used to monitor the background level of a cytokine. For the cytokine assays, calibration standards or samples were incubated in the MULTI-SPOT or the SINGLE-SPOT plate and each cytokine bound to its corresponding capture antibody. All test samples were run in duplicate. The amount of each cytokine on its distinct spot was quantified using a cytokine-specific detection antibody labeled with MSD SULFO-TAGTM reagent. Electrochemiluminescent signals from immobilized SULFO-TAGTM-labeled complexes on each spot from each well were captured by the MSD SECTOR Imager 6000, which produces a signal directly proportional to the amount of captured cytokine in a test sample. The levels of cytokines in test samples were derived by interpolation from calibration curves with calibration standards of known concentrations using reagents provided with the MSD kits. Kits were used according to the manufacturer's protocols. […] Data are expressed as a response ratio of cytokine concentration in treated cell medium to control DCCM1 medium.
(In an ELISA, binding on a coated surface is turned into a signal by an enzyme label.)

In assay [2] the test system is mouse IL-5 mRNA in primary LN cells. Put plainly: Mouse IL-5 mRNA in LN cells of immunized SJL/J mice stimulated with Copaxone and GMA lots, normalized to Actβ or GAPDH (Example V). It is filed as cell-based. The method, then:
A real-time polymerase chain reaction method was used to measure the expression of cytokine mRNA in GA-stimulated LN cells from GA-immunized SJL/J mice. Normalization of expression with two different housekeeping genes, GAPDH and β-actin, was tested.
Each group consisted of six female SJL/J mice immunized by injection in all four footpads with a total dose of 250 μg of one lot of GA, or mannitol and no GA. Three Copaxone batches and three GMA batches were used to immunize the mice. CFA was included in both GA and mannitol immunizations. Ten days following immunization, LN cell samples isolated from the immunized mice were each stimulated with a concentration of a Copaxone lot and a GMA lot. A positive control of 2.5 μg/mL ConA treated LN cells and a negative control of 10 μg/mL MBP treated cells were included in each group.
In the initial run, a lack of reproducibility was observed when cytokine mRNA levels were normalized to GAPDH mRNA levels. Therefore, the Q-PCR analysis was repeated on the samples, measuring levels of IL-2, IL-4, IL-5, and IL-13, using both GAPDH and β-actin as reference gene.
The RNA isolation and analysis procedures were similar to those described in Example IV. The expression levels of mouse IL-2, IL-4, IL-5 and IL-13 mRNA observed are summarized below in Tables 29 to 36. As shown by the data in Tables 30, 32, 34 and 36, a lack of reproducibility in the findings again was observed when cytokine mRNA levels were normalized to GAPDH mRNA for all cytokines except IL-13.

Assay [3] relates to mouse IL-2 mRNA in primary LN cells. Put plainly: Mouse IL-2 mRNA in LN cells of Copaxone P53974-immunized CSJLF1/JRj mice stimulated with twelve GA lots (Example VIII). It counts as cell-based. The protocol:
(§1) A real-time polymerase chain reaction method was used to measure the expression of IL-2, IL-4, IL-5, and IL-13 mRNA in LN cells, from GA-immunized mice, following stimulation with one of twelve GA lots. One lot of GA (Copaxone P53974) was used for immunization. […] Twenty female CSJLF1/JRj mice (Janvier Labs), approximately 8-12 weeks of age, were immunized by injection of 0.1 mL injection volume into four footpads (about 10 μL into each of the front footpad, 40 μL into each of the hind footpad) on Day 0. […] Samples were prepared using TaqMan Universal PCR Master Mix II (Life Technologies) and run in 96-well plates using a Real-Time PCR system (7500, Life Technologies) using the following RT-PCR program: The levels of cytokine mRNA were calculated using a standard ΔΔCT method as described previously.

Assay [4] deals with mouse CD25 (IL-2ra) mRNA in primary LN cells. Put plainly: Mouse CD25 mRNA in LN cells of Copaxone P53974-immunized CSJLF1/JRj mice stimulated with GA lots (Example VIII). It counts as cell-based. The settings on record: stimulation conc. 2.5 μg/mL, relative to DCCM1 medium control. The protocol: [The procedure below names another target; the source lists this target under the same test.] as §1

The next assay relates to secreted IL-2. Put plainly: Secreted IL-2 from treated LN cells (other experiments, data not shown). It is filed as cell-based, mouse. The note with it: increasing concentrations. The text has this:
This dose-dependent response was consistent for both test and reference compounds independent of whether Copaxone® or Mylan GMA was used as the immunizing antigen.

Where [5] appears, read: BALB/cByJ, immunized Mannitol Intraplantar.
The mark [6] stands for this setting: C57BL10J, immunized GA Intraplantar.
Where [7] appears, read: C57BL10J, immunized Mannitol Intraplantar.
The mark [8] stands for this setting: CD-1, immunized GA Intraplantar.
[9] abbreviates: CD-1, immunized Mannitol Intraplantar.
Setting [10] is: Plate 1, positive control 2.5 μg/mL listed in the C1 section.
The mark [11] stands for this setting: Plate 1, positive control 2.5 μg/mL listed in the C2 section.
Setting [12] is: Plate 1, positive control 2.5 μg/mL listed in the C3 section.

Where “and” joins values, the source holds several entries; their conditions need not be identical. Equal values may be shown once.

For “Concanavalin A [ConA, reference compound]”, the “IL-1b secretion response ratio (treated cell medium to control DCCM1 medium)” value in assay [1] (setting [5]) is recorded as 7.83; in assay [1] (setting [6]) it was 2.21; in assay [1] (setting [7]), 1.40; in assay [1] (setting [8]), 8.50; in assay [1] (setting [9]), 3.37. The “IL-5 mRNA Fold Change” value in assay [2] (Group 3 (mice immunized with GA-M2 Mylan GMA), 2.5 μg/mL, normalized to Actβ) is 19.1 fold; in assay [2] (Group 4 (mice immunized with GA-C2 Copaxone), 2.5 μg/mL, normalized to Actβ), 27.8 fold; in assay [2] (Group ID 3, 2.5 μg/mL, normalized to GAPDH), 21.1 fold; in assay [2] (Group ID 4, 2.5 μg/mL, normalized to GAPDH), 59.4 fold. Further, the “IL-2 mRNA/B-Actin Fold Change” value was 118.1 fold in assay [3] (setting [10]); 111.2 fold in assay [3] (setting [11]); 105.2 fold in assay [3] (setting [12]); 109.3 fold and 120.1 fold and 75.2 fold and 81.3 fold and 103.6 fold and 101.9 fold and 92.2 fold and 98.9 fold in assay [3] (stimulation conc. 2.5 μg/mL, normalized to B-Actin); 106.7 fold and 96.2 fold and 103.1 fold and 120.5 fold and 121.8 fold in assay [3] (stimulation conc. 2.5 μg/mL, normalized to B-Actin, ΔΔCT). In addition, the “IL-2 mRNA/GAPDH Fold Change” value in assay [3] (setting [10]) is 116.9 fold; in assay [3] (setting [11]) it was 103.7 fold; in assay [3] (setting [12]) it was 87.6 fold; in assay [3] (stimulation conc. 2.5 μg/mL, normalized to GAPDH), 103.2 fold and 111.7 fold and 82.0 fold and 84.8 fold and 158.0 fold and 127.7 fold and 102.6 fold and 127.5 fold; in assay [3] (stimulation conc. 2.5 μg/mL, normalized to GAPDH, ΔΔCT), 100.3 fold and 92.7 fold and 99.8 fold and 147.4 fold and 131.3 fold. Further, in assay [4] (normalized to B-Actin), the “CD25 mRNA/B-Actin Fold Change” value is 4.1 and 5.6 and 4.7 and 5.2 and 5.0 and 5.1. In assay [4] (normalized to GAPDH), the “CD25 mRNA/GAPDH Fold Change” value is 3.6 and 4.4 and 4.5 and 5.6 and 4.8 and 4.6 and 4.7.

In the case of “L-glutamic acid polymer with L-alanine, L-lysine and L-tyrosine, acetate (salt) [GA]”, the “secreted IL-2 from treated cells” value with secreted IL-2 is on record as “increased in dose-dependent fashion”.

B1: MBP: myelin basic protein, a negative control (protein, UniProt P02686 1-304, looked up)
Myelin basic protein: MGNHAGKRELNAEKASTNSETNRGESEKKRNLGELSRTTSEDNEVFGEADANQNNGTSSQDTAVTDSKRTADPKNAWQDAHPADPGSRPHLIRLFSRDAPGREDNTFKDRPSESDELQTIQEDSAATSESLDVMASQKRPSQRHGSKYLATASTMDHARHGFLPRHRDTGILDSIGRFFGGDRGAPKRGSGKDSHHPARTAHYGSLPQKSHGRTQDENPVVHFFKNIVTPRTPPPSQGKGRGLSLSRFSWGAEGQRPGFGYGGRASDYKSAHKGFKGVDAQGTLSKIFKLGGRDSRSGSPMARR
On to B1, for which the “IL-1b secretion response ratio (treated cell medium to control DCCM1 medium)” value in assay [1] (setting [5]) was found to be 0.87; in assay [1] (setting [6]) it was 0.99; in assay [1] (setting [7]), 0.92; in assay [1] (setting [8]), 1.37; in assay [1] (setting [9]), 1.20. For the same molecule, the “IL-5 mRNA Fold Change” value in assay [2] (Group 3 (mice immunized with GA-M2 Mylan GMA), 10 μg/mL, normalized to Actβ) was determined as 0.6 fold; in assay [2] (Group 4 (mice immunized with GA-C2 Copaxone), 10 μg/mL, normalized to Actβ) it was 1.1 fold; in assay [2] (Group ID 3, 10 μg/mL, normalized to GAPDH), 0.6 fold; in assay [2] (Group ID 4, 10 μg/mL, normalized to GAPDH), 2.3 fold.
